Active and inactive are the calls of the source.
Key:
[1] = test system: HCT-116; assay: In vivo antitumor activity against human HCT-116 cells xenografted in mouse model assessed as reduction in beta tubulin level at 80 mg/kg administered once through tail vein injection measured after 24 hrs by immunoblot analysis; assay type: functional, organism-based
[2] = test system: HCT-116; assay: In vivo antitumor activity against human HCT-116 cells xenografted in mouse model assessed as reduction in alpha tubulin level at 80 mg/kg administered once through tail vein injection measured after 24 hrs by immunoblot analysis; assay type: functional, organism-based
[3] = test system: HeLa; assay: Induction of apoptosis in human HeLa cells assessed as accumulation of cells at G2/M phase 0.1 to 10 uM incubated for 16 hrs by propidium iodide staining based flow cytometry; assay type: functional, cell-based; details: dose 0.1-10 µM
[4] = test system: HeLa; assay: Induction of FLAG tagged Beta tubulin E198G mutant (unknown origin) transfected in HeLa cells incubated for 16 hrs by immunoblotting analysis; assay type: cell-based; details: Homo sapiens
[5] = test system: HeLa; assay: Downregulation of Beta tubulin level in human HeLa cells incubated for 24 hrs by immunoblot analysis; assay type: functional, cell-based; details: dose 0.1-10 µM, DDE = dose-dependent effect
[6] = biological target: T1, Tubulin beta (Homo sapiens) (UniProt P68371+Q9H4B7+Q13509+P04350+Q3ZCM7+P07437+Q13885+Q9BVA1+Q9BUF5+A6NNZ2); assay: Binding affinity to Beta-tubulin colchicine binding site in human HeLa cells assessed as inhibition of tubulin-EBI adduct formation at 2 to 25 uM pretreated fo 1 hr with compound followed by EBI addition measured after 2 hrs by Western blotting analysis; assay type: cell-based; details: dose 2-25 µM, time 3.0 hrs
[7] = test system: NCI-H460; assay: In vivo antitumor activity against human NCI-H460 cells xenografted in Balb/c nude athymic mouse assessed as inhibition of tumor growth administered ip once a week and measured every 2 days for 24 days; assay type: functional, organism-based; details: dose 10-40 mg/kg, time 2.0 day, DDE = dose-dependent effect
[8] = test system: HeLa; assay: Downregulation of Alpha tubulin level in human HeLa cells at 1 uM measured for 6 hrs by tandem mass tag quantitative proteomic analysis; assay type: functional, cell-based
[9] = biological target: Tubulin beta; assay: Induction of Beta tubulin degradation in human HeLa cells incubated for 24 hrs by immunoblot analysis; assay type: cell-based
[10] = test system: HeLa; assay: Downregulation of Alpha tubulin level in human HeLa cells at 1 uM by immunoblot analysis; assay type: functional, cell-based; details: time 1-16 hrs, TDE = time-dependent effect
[11] = test system: HeLa; assay: Downregulation of Alpha tubulin level in human HeLa cells incubated for 24 hrs by immunoblot analysis; assay type: functional, cell-based; details: dose 0.1-10 µM, DDE = dose-dependent effect
[12] = biological target: T1, Tubulin beta (Homo sapiens); assay: Induction of Beta tubulin degradation in human HeLa cells at 1 uM incubated for 16 hrs in presence of pironetin by immunoblot analysis; assay type: cell-based
[13] = test system: HCT-116; assay: Downregulation of Beta tubulin level in human HCT-116 cells at 1 uM by immunoblot analysis; assay type: functional, cell-based; details: time 1-16 hrs, TDE = time-dependent effect
[14] = test system: Tubulin beta (Homo sapiens), P68371+Q9H4B7+Q13509+P04350+Q3ZCM7+P07437+Q13885+Q9BVA1+Q9BUF5+A6NNZ2 [UNDEFINED MUTATION]; assay: Induction of FLAG tagged Beta tubulin E198D mutant (unknown origin) transfected in HeLa cells incubated for 16 hrs by immunoblotting analysis; assay type: cell-based
[15] = test system: HeLa; assay: Reduction in Alpha tubulin mRNA expression in human HeLa cells at 1 uM measured upto 16 hrs by qPCR analysis; assay type: functional, cell-based
[16] = test system: HeLa; assay: Downregulation of Beta tubulin level in human HeLa cells at 1 uM by immunoblot analysis; assay type: functional, cell-based; details: time 1-16 hrs, TDE = time-dependent effect
[17] = biological target: T1, Tubulin beta (Homo sapiens); assay: Induction of Beta tubulin degradation in human HeLa cells at 1 uM incubated for 16 hrs in presence of maytansine by immunoblot analysis; assay type: cell-based
[18] = test system: HeLa; assay: Induction of FLAG tagged Beta tubulin E198Q mutant (unknown origin) transfected in HeLa cells incubated for 16 hrs by immunoblotting analysis; assay type: cell-based; details: Homo sapiens
[19] = test system: Tubulin beta (Homo sapiens), P68371+Q9H4B7+Q13509+P04350+Q3ZCM7+P07437+Q13885+Q9BVA1+Q9BUF5+A6NNZ2 [UNDEFINED MUTATION]; assay: Induction of FLAG tagged Beta tubulin (unknown origin) Y200F mutant transfected in human HeLa cells incubated for 16 hrs by immunoblotting analysis; assay type: cell-based
[20] = test system: SU-DHL-6; assay: Downregulation of Beta tubulin level in human SU-DHL-6 cells incubated for 24 hrs by immunoblot analysis; assay type: functional, cell-based; details: dose 0.1-10 µM, DDE = dose-dependent effect
[21] = biological target: T2, Tubulin (Homo sapiens) (UniProt P68371+Q9H4B7+P0DPH7+P68366+Q13509+Q71U36+P04350+Q3ZCM7+P07437+P68363+Q9BQE3+Q6PEY2+Q13885+Q9BVA1+Q9BUF5); assay: Induction of tubulin aggregation in human HeLa cells by size-exclusion chromatography; assay type: cell-based
[22] = test system: NCI-H460; assay: Downregulation of Beta tubulin level in human NCI-H460 cells incubated for 24 hrs by immunoblot analysis; assay type: functional, cell-based; details: dose 0.1-10 µM, DDE = dose-dependent effect
[23] = biological target: T1, Tubulin beta (Homo sapiens); assay: Induction of Beta tubulin degradation in human HeLa cells assessed as increase in ubiquitination level of Beta tubulin at 1 to 10 uM incubated for 6 hrs by immunoblot analysis; assay type: cell-based; details: dose 1-10 µM
[24] = biological target: T2, Tubulin (Homo sapiens); assay: Destabilization of tubulin (unknown origin) assessed as melting temperature at 30 uM incubated for 20 mins by differential scanning fluorimetry; assay type: protein-complex assay
[25] = test system: HeLa; assay: Downregulation of Beta tubulin level in human HeLa cells at 1 uM measured for 6 hrs by tandem mass tag quantitative proteomic analysis; assay type: functional, cell-based
[26] = biological target: T3, Tubulin (Sus scrofa) (UniProt P02554+P02550); assay: Inhibition of porcine tubulin polymerization measured every 1 min for 30 mins in presence of GTP by microplate reader analysis; assay type: protein assay; details: dose 5-20 µM, DDE = dose-dependent effect
T3 sequence (P02550 whole entry, looked up): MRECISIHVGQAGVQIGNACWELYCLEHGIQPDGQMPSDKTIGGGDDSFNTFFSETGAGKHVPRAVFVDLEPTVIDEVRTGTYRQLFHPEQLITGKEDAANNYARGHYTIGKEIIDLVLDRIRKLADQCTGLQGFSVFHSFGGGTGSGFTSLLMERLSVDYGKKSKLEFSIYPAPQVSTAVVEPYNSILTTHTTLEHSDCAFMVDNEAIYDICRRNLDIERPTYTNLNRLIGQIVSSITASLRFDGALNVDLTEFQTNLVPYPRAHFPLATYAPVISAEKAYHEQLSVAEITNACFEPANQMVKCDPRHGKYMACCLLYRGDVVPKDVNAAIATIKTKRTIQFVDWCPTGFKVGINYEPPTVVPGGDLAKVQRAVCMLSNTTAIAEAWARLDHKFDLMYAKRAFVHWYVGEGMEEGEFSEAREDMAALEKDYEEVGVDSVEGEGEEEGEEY
T3 sequence (P02554 whole entry, looked up): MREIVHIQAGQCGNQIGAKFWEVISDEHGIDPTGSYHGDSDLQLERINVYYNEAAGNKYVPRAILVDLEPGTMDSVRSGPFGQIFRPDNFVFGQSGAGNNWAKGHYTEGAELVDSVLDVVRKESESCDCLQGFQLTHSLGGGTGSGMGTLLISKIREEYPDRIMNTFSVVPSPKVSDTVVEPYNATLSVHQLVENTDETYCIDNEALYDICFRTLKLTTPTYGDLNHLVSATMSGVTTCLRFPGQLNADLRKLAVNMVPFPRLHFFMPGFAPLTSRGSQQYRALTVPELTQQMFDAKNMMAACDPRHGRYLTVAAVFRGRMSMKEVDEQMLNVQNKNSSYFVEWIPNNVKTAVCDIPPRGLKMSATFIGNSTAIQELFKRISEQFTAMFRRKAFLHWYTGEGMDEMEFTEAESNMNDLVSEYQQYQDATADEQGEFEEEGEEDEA

[27] = test system: HCT-116; assay: Antiproliferative activity against human HCT-116 cells assessed as cell viability at 0.001 to 100 uM incubated for 72 hrs by MTT assay; assay type: functional, cell-based; details: dose 0.001-100 µM
[28] = biological target: T2, Tubulin (Homo sapiens); assay: Induction of tubulin degradation in human HeLa cells assessed as ubiquitin of total protein at 0.01 to 100 uM incubated for 16 hrs by immunoblot analysis; assay type: cell-based; details: dose 0.01-100 µM
[29] = biological target: T4, Tubulin alpha (Homo sapiens) (UniProt P0DPH7+P68366+Q71U36+P68363+Q9BQE3+Q6PEY2+A6NHL2+Q9NY65); assay: Induction of Alpha tubulin degradation in human HeLa cells at 1 uM incubated for 16 hrs in presence of vinblastine by immunoblot analysis; assay type: cell-based
[30] = biological target: T1, Tubulin beta (Homo sapiens); assay: Induction of wild type flag tagged Beta tubulin (unknown origin) transfected in HeLa cells incubated for 16 hrs by immunoblotting analysis; assay type: cell-based
[31] = test system: HCT-116; assay: In vivo antitumor activity against human HCT-116 cells xenografted in Balb/c nude athymic mouse assessed as inhibition of tumor growth administered ip once a week and measured every 2 days for 24 days; assay type: functional, organism-based; details: dose 10-40 mg/kg, time 2.0 day, DDE = dose-dependent effect
[32] = biological target: T1, Tubulin beta (Homo sapiens); assay: Induction of Beta tubulin degradation in human HeLa cells at 1 uM incubated for 16 hrs in presence of vinblastine by immunoblot analysis; assay type: cell-based
[33] = biological target: T2, Tubulin (Homo sapiens); assay: Induction of tubulin […] (unknown origin) assessed as increase in turbidity at 5 to 20 uM measured every one min for 30 mins by absorbance based analysis; assay type: protein-complex assay; details: dose 5-20 µM
[34] = test system: HCT-116; assay: Downregulation of Alpha tubulin level in human HCT-116 cells incubated for 24 hrs by immunoblot analysis; assay type: functional, cell-based; details: dose 0.1-10 µM, DDE = dose-dependent effect
[35] = biological target: T4, Tubulin alpha (Homo sapiens); assay: Induction of Alpha tubulin degradation in human HeLa cells assessed as increase in ubiquitination level of Alpha tubulin at 1 to 10 uM incubated for 6 hrs by immunoblot analysis; assay type: cell-based; details: dose 1-10 µM
[36] = test system: HeLa; assay: Antiproliferative activity against human Hela cells assessed as cell viability at 0.001 to 100 microM incubated for 72 hrs by MTT assay; assay type: functional, cell-based; details: dose 0.001-100 µM
[37] = biological target: T4, Tubulin alpha (Homo sapiens); assay: Induction of Alpha tubulin degradation in human HeLa cells at 1 uM incubated for 16 hrs in presence of pironetin by immunoblot analysis; assay type: cell-based
[38] = test system: NCI-H460; assay: Downregulation of Alpha tubulin level in human NCI-H460 cells incubated for 24 hrs by immunoblot analysis; assay type: functional, cell-based; details: dose 0.1-10 µM, DDE = dose-dependent effect
[39] = test system: HCT-116; assay: Induction of apoptosis in human HCT-116 cells assessed as accumulation of cells at G2/M phase 0.1 to 10 uM incubated for 16 hrs by propidium iodide staining based flow cytometry; assay type: functional, cell-based; details: dose 0.1-10 µM
[40] = test system: HeLa; assay: Reduction in Beta tubulin mRNA expression in human HeLa cells at 1 uM measured upto 16 hrs by qPCR analysis; assay type: functional, cell-based
[41] = biological target: T4, Tubulin alpha (Homo sapiens); assay: Induction of Alpha tubulin degradation in human HeLa cells at 1 uM incubated for 16 hrs in presence of maytansine by immunoblot analysis; assay type: cell-based
[42] = test system: HCT-116; assay: Downregulation of Alpha tubulin level in human HCT-116 cells at 1 uM by immunoblot analysis; assay type: functional, cell-based; details: time 1-16 hrs, TDE = time-dependent effect
[43] = test system: SU-DHL-6; assay: Downregulation of Alpha tubulin level in human SU-DHL-6 cells incubated for 24 hrs by immunoblot analysis; assay type: functional, cell-based; details: dose 0.1-10 µM, DDE = dose-dependent effect
[44] = biological target: Tubulin alpha; assay: Induction of Alpha tubulin degradation in human HeLa cells incubated for 24 hrs by immunoblot analysis; assay type: cell-based
[45] = biological target: T3, Tubulin (Sus scrofa); assay: Induction of porcine tubulin aggregation assessed as formation of spherical sized tubulin aggregates at 20 uM incubated for 4 hrs by TEM analysis; assay type: protein assay
[46] = test system: HCT-116; assay: Downregulation of Beta tubulin level in human HCT-116 cells incubated for 24 hrs by immunoblot analysis; assay type: functional, cell-based; details: dose 0.1-10 µM, DDE = dose-dependent effect
[47] = test system: NCI-H460; assay: Antiproliferative activity against human NCI-H460 cells assessed as cell viability at 0.001 to 100 uM incubated for 72 hrs by MTT assay; assay type: functional, cell-based; details: dose 0.001-100 µM
[48] = biological target: T1, Tubulin beta (Homo sapiens); assay: Induction of Beta tubulin degradation in human HeLa cells at 0.001 to 100 uM incubated for 16 hrs by immunoblotting analysis; assay type: cell-based; details: dose 0.001-100 µM
[49] = test system: HeLa; assay: Antiproliferative activity against human HeLa cells assessed as cell viability at 0.001 to 100 uM incubated for 48 hrs by MTT assay; assay type: functional, cell-based; details: dose 0.001-100 µM

c1ccc(Oc2cccc(CNc3cc4c(cn3)[nH]c3ccccc34)c2)cc1
51.5 °C: Tm [24]
182 nM: DC50 [44]
active: Activity [1] | Activity [2] | Activity [3] | Activity [4] | Activity [5] Dde | Activity [6] | Activity [7] Dde | Activity [8] | Activity [10] Tde | Activity [11] Dde | Activity [12] | Activity [13] Tde | Activity [14] | Activity [15] | Activity [16] Tde | Activity [17] | Activity [18] | Activity [19] | Activity [20] Dde | Activity [21] | Activity [22] Dde | Activity [23] | Activity [25] | inhibition [26] Dde | Activity [27] | Activity [28] | Activity [29] | Activity [30] | Activity [31] Dde | Activity [32] | Activity [33] | Activity [34] Dde | Activity [35] | Activity [36] | Activity [37] | Activity [38] Dde | Activity [39] | Activity [40] | Activity [41] | Activity [42] Tde | Activity [43] Dde | Activity [45] | Activity [46] Dde | Activity [47]
524 nM: DC50 [9]

c1ccc(Oc2cccc(CNc3cc4ccccc4cn3)c2)cc1
active: Activity [48] | Activity [49]

Reference: ChEMBL document CHEMBL5143724, “Small Molecules Promote Selective Denaturation and Degradation of Tubulin Heterodimers through a Low-Barrier Hydrogen Bond” (J Med Chem, 2022)
